Assay [1] addresses human cathepsin K (UniProt P43236). Description: Cathepsin K Assay (hrbCat K). It is filed as biochemical. The following applies: Z-Leu-Arg-AMC substrate, pH 5.5, 15 min preincubation; read-out: hrbCat K (IP (nM)). On the procedure: Cathepsin K Assay (hrbCat K)
(§1) Then 0.5 μL of DMSO from each dilution were added to 18.75 μL of assay buffer (MES, 50 mM (pH 5.5); EDTA, 2.5 mM; DTT, 2.5 mM and 10% DMSO) containing human cathepsin K (0.4 nM) in assay buffer solution. The assay solutions were mixed for 5-10 seconds on a shaker plate and incubated for 15 minutes at room temperature. Z-Leu-Arg-AMC (8 μM) in 6.25 μL of assay buffer was added to the assay solutions. Hydrolysis of the coumarin leaving group (AMC) was followed by spectrofluorometry (Exλ=360 nm; Emλ=460 nm) for 30 minutes. Percent of inhibition were calculated by fitting experimental values to standard mathematical model for dose response curve.

The target in assay [2] is T1, human cathepsin F (Homo sapiens, UniProt Q9UBX1).
T1 sequence (Q9UBX1 271-484): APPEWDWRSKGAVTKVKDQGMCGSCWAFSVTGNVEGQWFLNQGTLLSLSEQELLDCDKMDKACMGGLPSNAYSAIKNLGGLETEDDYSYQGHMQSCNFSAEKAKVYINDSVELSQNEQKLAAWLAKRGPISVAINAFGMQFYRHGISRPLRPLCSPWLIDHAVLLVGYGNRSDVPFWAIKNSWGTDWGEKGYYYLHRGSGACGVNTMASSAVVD
Put plainly: Cathepsin F assay (hCat F). The class given is biochemical. The following applies: Z-Phe-Arg-AMC substrate, pH 5.5, 15 min preincubation; read-out: hCat F (IP (nM)). On the procedure: Cathepsin F assay (hCat F)
as §1, with “Serial dilutions (1/3) from 500 μM down to 0.025 μM of test compounds were prepared in dimethyl sulfoxide (DMSO). Then” for “Then”, “F (10” for “K (0.4”, “Z-Phe-Arg-AMC” for “Z-Leu-Arg-AMC”, “20” for “30”

The values that follow come from patent US9573913B2, “Cathepsin cysteine protease inhibitors” (Merck Sharp & Dohme Corp., priority 2013, dated 2017).

As to `CC(Oc1ncccc1-c1nc([C@@H]2CCCC[C@H]2C(=O)NC2(C#N)CC2)c(-c2ccc(N3CCS(=O)(=O)CC3)cc2)s1)C(F)(F)F` (mixture of isomers) [Example 134, (1R,2R)-N-(1-cyanocyclopropyl)-2-(5-(4-(1,1-dioxidothiomorpho-lino)phenyl)-2-(2-(((S and R)-1,1,1-trifluoropropan-2-yl)oxy)pyridin-3-yl)thiazol-4-yl)cyclohexane-carboxamide], the IC50 in assay [1] turned out to be 2.8 nM; in assay [2], 3330 nM.
For `CC(Oc1ccc(-c2nc([C@@H]3CCCC[C@H]3C(=O)NC3(C#N)CC3)c(-c3ccc(N4CCS(=O)(=O)CC4)cc3)s2)cn1)C(F)(F)F` (mixture of isomers) [Example 137, (1R,2R)-N-(1-cyanocyclopropyl)-2-(5-(4-(1,1-dioxidothiomorpho-lino)phenyl)-2-(6-(((S and R)-1,1,1-trifluoropropan-2-yl)oxy)pyridin-3-yl)thiazol-4-yl)cyclohexane-carboxamide] the same measures were 1.2 nM and 3330 nM.
As to `N#CC1(NC(=O)[C@@H]2CCCC[C@H]2c2nc(C3CCOC3)sc2-c2ccc(N3CCS(=O)(=O)CC3)cc2)CC1` (mixture of isomers) [Example 147, (1R,2R)-N-(1-cyanocyclopropyl)-2-(5-(4-(1,1-dioxidothiomorpho-lino)phenyl)-2-((R and S)-tetrahydrofuran-3-yl)thiazol-4-yl)cyclohexane-carboxamide], the IC50 in assay [1] is 4.5 nM; in assay [2], 1000 nM.
Taken in the same sequence, the figures for `N#CC1(NC(=O)[C@@H]2CCCC[C@H]2c2nc(C3CCCCO3)sc2-c2ccc(N3CCS(=O)(=O)CC3)cc2)CC1` (mixture of isomers) [Example 148, (1R,2R)-N-(1-cyanocyclopropyl)-2-(5-(4-(1,1-dioxidothiomorpho-lino)phenyl)-2-((R and S)-tetrahydro-2H-pyran-2-yl)thiazol-4-yl)cyclohexane-carboxamide] were 2.6 nM and 1930 nM.
With `N#CC1(NC(=O)[C@@H]2CCCC[C@H]2c2nc(C3CCC(F)(F)C3)sc2-c2ccc(N3CCS(=O)(=O)CC3)cc2)CC1` (mixture of isomers) [Example 154, (1R,2R)-N-(1-cyanocyclopropyl)-2-(2-((R and S)-3,3-difluorocyclopentyl)-5-(4-(1,1-dioxidothiomorpho-lino)phenyl)thiazol-4-yl)cyclohexane-carboxamide], the results for the IC50 in assay [1] and in assay [2] were 4.5 nM and 1000 nM, respectively.
For `CS(=O)(=O)c1ccc(-c2oc(-c3ccccc3)nc2C2CCC(F)(F)CC2C(=O)NCC#N)cc1` (racemic) [Example 162, (1R,2R and 1S,2S)-N-(cyanomethyl)-5,5-difluoro-2-(5-(4-(methylsulfonyl)phenyl)-2-phenyloxazol-4-yl)cyclohexane-carboxamide] the same measures were 2.7 nM and 49 nM.
Taken in the same sequence, the figures for `CS(=O)(=O)c1ccc(-c2oc(-c3ccc(F)cc3)nc2C2CCC(F)(F)CC2C(=O)NCC#N)cc1` (racemic) [Example 163, (1R,2R and 1S,2S)-N-(cyanomethyl)-5,5-difluoro-2-(2-(4-fluorophenyl)-5-(4-(methylsulfonyl)phenyl)oxazol-4-yl)cyclohexane-carboxamide] were 2.9 nM and 26 nM.
For `N#CC(NC(=O)[C@@H]1CCCC[C@H]1c1nc(-c2ccc(F)cn2)sc1-c1ccc(N2CCS(=O)(=O)CC2)cc1)C(F)(F)F` (mixture of isomers) [Example 215, (1R,2R)-N-((S and R)-1-cyano-2,2,2-trifluoroethyl)-2-(5-(4-(1,1-dioxidothiomorpho-lino)phenyl)-2-(5-fluoropyridin-2-yl)thiazol-4-yl)cyclohexane-carboxamide] the same measures were 2.4 nM and 60 nM.
Take `CC1CC1(C#N)NC(=O)[C@@H]1CCCC[C@H]1c1nc(-c2ccc(F)cn2)sc1-c1ccc(N2CCS(=O)(=O)CC2)cc1` (single isomer, unassigned) [Example 203, (1R,2R)-N-((1R,2S or 1R,2R or 1S,2S or 1S,2R)-1-cyano-2-methylcyclopropyl)-2-(5-(4-(1,1-dioxidothiomorpho-lino)phenyl)-2-(5-fluoropyridin-2-yl)thiazol-4-yl)cyclohexane-carboxamide]: the IC50 in assay [1] amounted to 161 nM.
As for `CC(C)(O)C(C#N)NC(=O)[C@@H]1CCCC[C@H]1c1nc(-c2ccc(F)cn2)sc1-c1ccc(N2CCS(=O)(=O)CC2)cc1` (single isomer, unassigned) [Example 226, (1R,2R)-N-((S or R)-1-cyano-2-hydroxy-2-methylpropyl)-2-(5-(4-(1,1-dioxidothiomorpho-lino)phenyl)-2-(5-fluoropyridin-2-yl)thiazol-4-yl)cyclohexane-carboxamide], the IC50 in assay [2] was ≥ 10000 nM.
Take `CC(C)(O)C(C#N)NC(=O)[C@@H]1CCCC[C@H]1c1nc(-c2ccc(F)cn2)sc1-c1ccc(N2CCS(=O)(=O)CC2)cc1` (single isomer, unassigned) [Example 227, (1R,2R)-N-((R or S)-1-cyano-2-hydroxy-2-methylpropyl)-2-(5-(4-(1,1-dioxidothiomorpho-lino)phenyl)-2-(5-fluoropyridin-2-yl)thiazol-4-yl)cyclohexane-carboxamide]: in assay [1], the IC50 came to 59.5 nM.
On the same count and under the same terms, the result for `N#CC1(NC(=O)[C@@H]2C[C@@H](F)CC[C@H]2c2nc(C3CC(F)C3)sc2-c2ccc(N3CCS(=O)(=O)CC3)cc2)CC1` (single isomer, unassigned) [Example 235, (1R,2R,5S)-N-(1-cyanocyclopropyl)-2-(5-(4-(1,1-dioxidothiomorpho-lino)phenyl)-2-((1R,3R or 1S,3S)-3-fluorocyclobutyl)thiazol-4-yl)-5-fluorocyclohexane-carboxamide] reads 4.2 nM; that for `Cc1ncc(-c2nc([C@@H]3CCCC[C@H]3C(=O)NC3(C#N)CC3)c(-c3ccc(N4CCS(=O)(=O)CC4)cc3)s2)s1` [Example 52, (1R,2R)-N-(1-cyanocyclopropyl)-2-(5-(4-(1,1-dioxidothiomorpho-lino)phenyl)-2′-methyl-[2,5′-bithiazol]-4-yl)cyclohexane-carboxamide], 2.3 nM; that for `N#CC1(NC(=O)[C@@H]2CCC(F)(F)C[C@H]2c2nc(-c3cncc(F)c3)sc2-c2ccc(N3CCS(=O)(=O)CC3)cc2)CC1` [Example 108, (1R,2R)-N-(1-cyanocyclopropyl)-2-(5-(4-(1,1-dioxidothiomorpho-lino)phenyl)-2-(5-fluoropyridin-3-yl)thiazol-4-yl)-4,4-difluorocyclohexane-carboxamide], 1.7 nM.
On the same count and under the same terms, the result for `CC(C)(C#N)NC(=O)[C@@H]1C[C@@H](F)CC[C@H]1c1nc(-c2ccc(F)cn2)sc1-c1ccc(N2CCS(=O)(=O)CC2)cc1` [Example 140, (1R,2R,5S)-N-(2-cyanopropan-2-yl)-2-(5-(4-(1,1-dioxidothiomorpho-lino)phenyl)-2-(5-fluoropyridin-2-yl)thiazol-4-yl)-5-fluorocyclohexane-carboxamide] reads 66.7 nM; that for `N#CC1(NC(=O)[C@@H]2CCC(F)(F)C[C@H]2c2nc(-c3cncc(F)c3)sc2-c2ccc(N3CCS(=O)(=O)CC3)cc2)CC1` [Example 218, (1R,2R)-N-(1-cyanocyclopropyl)-2-(5-(4-(1,1-dioxidothiomorpho-lino)phenyl)-2-(5-fluoropyridin-3-yl)thiazol-4-yl)-4,4-difluorocyclohexane-carboxamide], 4.2 nM.
